Measured values published in US7507739B2, “6-[(substituted)phenyl]triazolopyrimidines as anticancer agents” (Wyeth, priority 2003, dated 2009).
Marks after values point to notes of the source that are not given here.

Assays:
HeLa cells = test: Cell cycle analysis with HeLa cells; assay type: cell-based, human; settings: 18 hr
[1] = system: A549 Human Non-Small Cell Lung Carcinoma; test: Human tumor xenograft test, A549; assay type: in vivo, athymic mice; settings: for T/C on day 0 / T/C on day 7 / T/C on day 14 / T/C on day 21 / T/C on day 27 / T/C on day 35: days 0, 6, 13, 20
Experimental: (§1) The ability of compounds of this invention to inhibit tumor growth in animals is studied in the athymic mouse xenograft standard pharmacological test. Female nu/nu mice in an outbred albino background are obtained from Charles River Laboratories (Wilmington, Mass.). Animals are injected subcutaneously on the flank with the desired tumor cell suspension. Several days later, mice with tumors of approximately 150 mm^3 are selected from those injected (staged) and randomly distributed into groups of 5-10. The day of staging is called day 0. Compounds of the invention, usually formulated in saline (exceptions are noted in tables), are administered to animals by intravenous injection or oral gavage on various schedules starting on day 0 or 1, as noted in the tables. The control group in each experiment is dosed with vehicle on the same schedule. Tumor size is measured every 3-7 days with calipers in two orthogonal dimensions, and tumor volume is calculated from the formula volume=[(length×width^2)/2].
(§2) Tumor/Control (T/C) is obtained by dividing the mean tumor volume of the treated group by the mean tumor volume of the control group on each measurement day. A treatment dose is defined as active if it produced a statistically significant T/C of 0.50 or less. A p value≦0.05, determined by one-side Student's t-test, is required for statistical significance. A treatment dose is defined as toxic if more than 10% of the animals died from a compound-related toxicity.

[2] = system: U87-MG Human Glioblastoma; test: Human tumor xenograft test, U87-MG; assay type: in vivo, athymic mice; settings: U87-MG
Experimental: as §1, §2

[3] = system: DLD1 Human Colon Carcinoma; test: Human tumor xenograft test, DLD1; assay type: in vivo; settings: days 1, 5, 9, 13
[4] = system: LoVo Human Colon Carcinoma; test: Human tumor xenograft test, LoVo; assay type: in vivo, athymic mice; settings: for T/C on day 0 / T/C on day 7 / T/C on day 14 / T/C on day 21 / T/C on day 28 / T/C on day 35: days 1, 7, 14
Experimental: as §1, §2

Structure (SMILES): CNCCCOc1cc(F)c(-c2c(Cl)nc3ncnn3c2N[C@@H](C)C(F)(F)F)c(F)c1.Cl [Example 2a, 5-Chloro-6-{2,6-difluoro-4-[3-(methylamino)propoxy]phenyl}-N-[(1S)-2,2,2-trifluoro-1-methylethyl][1,2,4]triazolo[1,5-a]pyrimidin-7-amine hydrogen chloride]
- Percent in Cell Cycle Phase >4N (HeLa cells; 20 nM): 2%
- Percent in Cell Cycle Phase Apop (HeLa cells; 20 nM): 28%
- Percent in Cell Cycle Phase G1 (HeLa cells; 20 nM): 41%
- Percent in Cell Cycle Phase G2/M (HeLa cells; 20 nM): 16%
- Percent in Cell Cycle Phase S (HeLa cells; 20 nM): 14%
- Percent in Cell Cycle Phase >4N (HeLa cells; 30 nM): 2%
- Percent in Cell Cycle Phase Apop (HeLa cells; 30 nM): 62%
- Percent in Cell Cycle Phase G1 (HeLa cells; 30 nM): 12%
- Percent in Cell Cycle Phase G2/M (HeLa cells; 30 nM): 16%
- Percent in Cell Cycle Phase S (HeLa cells; 30 nM): 10%
- Percent in Cell Cycle Phase >4N (HeLa cells; 40 nM): 2%
- Percent in Cell Cycle Phase Apop (HeLa cells; 40 nM): 44%
- Percent in Cell Cycle Phase G1 (HeLa cells; 40 nM): 5%
- Percent in Cell Cycle Phase G2/M (HeLa cells; 40 nM): 39%
- Percent in Cell Cycle Phase S (HeLa cells; 40 nM): 9%
- Percent in Cell Cycle Phase >4N (HeLa cells; 50 nM): 4%
- Percent in Cell Cycle Phase Apop (HeLa cells; 50 nM): 25%
- Percent in Cell Cycle Phase G1 (HeLa cells; 50 nM): 5%
- Percent in Cell Cycle Phase G2/M (HeLa cells; 50 nM): 58%
- Percent in Cell Cycle Phase S (HeLa cells; 50 nM): 9%
- Percent in Cell Cycle Phase >4N (HeLa cells; 60 nM): 4%
- Percent in Cell Cycle Phase Apop (HeLa cells; 60 nM): 24%
- Percent in Cell Cycle Phase G1 (HeLa cells; 60 nM): 4%
- Percent in Cell Cycle Phase G2/M (HeLa cells; 60 nM): 58%
- Percent in Cell Cycle Phase S (HeLa cells; 60 nM): 9%
- Percent in Cell Cycle Phase >4N (HeLa cells; 70 nM): 4%
- Percent in Cell Cycle Phase Apop (HeLa cells; 70 nM): 22%
- Percent in Cell Cycle Phase G1 (HeLa cells; 70 nM): 6%
- Percent in Cell Cycle Phase G2/M (HeLa cells; 70 nM): 57%
- Percent in Cell Cycle Phase S (HeLa cells; 70 nM): 11%
- Percent in Cell Cycle Phase >4N (HeLa cells; 80 nM): 4%
- Percent in Cell Cycle Phase Apop (HeLa cells; 80 nM): 26%
- Percent in Cell Cycle Phase G1 (HeLa cells; 80 nM): 7%
- Percent in Cell Cycle Phase G2/M (HeLa cells; 80 nM): 52%
- Percent in Cell Cycle Phase S (HeLa cells; 80 nM): 11%
- Percent in Cell Cycle Phase >4N (HeLa cells; 90 nM): 4%
- Percent in Cell Cycle Phase Apop (HeLa cells; 90 nM): 30%
- Percent in Cell Cycle Phase G1 (HeLa cells; 90 nM): 7%
- Percent in Cell Cycle Phase G2/M (HeLa cells; 90 nM): 46%
- Percent in Cell Cycle Phase S (HeLa cells; 90 nM): 13%
- Percent in Cell Cycle Phase >4N (HeLa cells; 100 nM): 4%
- Percent in Cell Cycle Phase Apop (HeLa cells; 100 nM): 34%
- Percent in Cell Cycle Phase G1 (HeLa cells; 100 nM): 7%
- Percent in Cell Cycle Phase G2/M (HeLa cells; 100 nM): 41%
- Percent in Cell Cycle Phase S (HeLa cells; 100 nM): 15%
- Percent in Cell Cycle Phase >4N (HeLa cells; 110 nM): 4%
- Percent in Cell Cycle Phase Apop (HeLa cells; 110 nM): 37%
- Percent in Cell Cycle Phase G1 (HeLa cells; 110 nM): 9%
- Percent in Cell Cycle Phase G2/M (HeLa cells; 110 nM): 37%
- Percent in Cell Cycle Phase S (HeLa cells; 110 nM): 14%
- Percent in Cell Cycle Phase >4N (HeLa cells; 120 nM): 4%
- Percent in Cell Cycle Phase Apop (HeLa cells; 120 nM): 39%
- Percent in Cell Cycle Phase G1 (HeLa cells; 120 nM): 8%
- Percent in Cell Cycle Phase G2/M (HeLa cells; 120 nM): 36%
- Percent in Cell Cycle Phase S (HeLa cells; 120 nM): 15%
- T/C on day 0 ([1]; A549, 15 mg/kg IV): 1.01
- T/C on day 7 ([1]; A549, 15 mg/kg IV): 0.75*
- T/C on day 14 ([1]; A549, 15 mg/kg IV): 0.61**
- T/C on day 21 ([1]; A549, 15 mg/kg IV): 0.83
- T/C on day 27 ([1]; A549, 15 mg/kg IV): 0.75
- T/C on day 35 ([1]; A549, 15 mg/kg IV): 0.76
- tumor growth inhibition (activity call) ([1]; A549, 15 mg/kg intravenously on days 0, 6, 13, and 20): not at 15 mg/kg
- T/C on day 0 ([1]; A549, 20 mg/kg IV): 0.97
- T/C on day 7 ([1]; A549, 20 mg/kg IV): 0.79
- T/C on day 14 ([1]; A549, 20 mg/kg IV): 0.55**
- T/C on day 21 ([1]; A549, 20 mg/kg IV): 0.59*
- T/C on day 27 ([1]; A549, 20 mg/kg IV): 0.50*
- T/C on day 35 ([1]; A549, 20 mg/kg IV): 0.49*
- T/C on day 0 ([1]; A549, 25 mg/kg IV): 0.99
- T/C on day 7 ([1]; A549, 25 mg/kg IV): 0.72*
- T/C on day 14 ([1]; A549, 25 mg/kg IV): 0.51**
- T/C on day 21 ([1]; A549, 25 mg/kg IV): 0.57*
- T/C on day 27 ([1]; A549, 25 mg/kg IV): 0.48*
- T/C on day 35 ([1]; A549, 25 mg/kg IV): 0.44*
- tumor growth inhibition (activity call) ([1]; A549, 25 and 20 mg/kg intravenously on days 0, 6, 13, and 20): inhibited the growth
- tumor growth inhibition (activity call) ([2]; orally single dose on day 0 at 5 or 2.5 mg/kg): not at 5 or 2.5 mg/kg
- tumor growth inhibition (activity call) ([2]; orally single dose on day 0 at 30, 20, and 10 mg/kg): inhibited the growth
- T/C on day 0 ([3]; DLD1, 10 mg/kg IV): 1.00
- T/C on day 7 ([3]; DLD1, 10 mg/kg IV): 0.66
- T/C on day 14 ([3]; DLD1, 10 mg/kg IV): 0.65
- T/C on day 21 ([3]; DLD1, 10 mg/kg IV): 0.72
- T/C on day 0 ([3]; DLD1, 15 mg/kg IV): 1.00
- T/C on day 7 ([3]; DLD1, 15 mg/kg IV): 0.59
- T/C on day 14 ([3]; DLD1, 15 mg/kg IV): 0.54
- T/C on day 21 ([3]; DLD1, 15 mg/kg IV): 0.74
- T/C on day 0 ([3]; DLD1, 20 mg/kg IV): 1.00
- T/C on day 7 ([3]; DLD1, 20 mg/kg IV): 0.46*
- T/C on day 14 ([3]; DLD1, 20 mg/kg IV): 0.33
- T/C on day 21 ([3]; DLD1, 20 mg/kg IV): 0.53

Structure (SMILES): C[C@H](Nc1c(-c2c(F)cc(OCCCO)cc2F)c(Cl)nc2ncnn12)C(F)(F)F [Example 20, 3-[4-(5-Chloro-7-{[(1S)-2,2,2-trifluoro-1-methylethyl]amino}[1,2,4]triazolo[1,5-a]pyrimidin-6-yl)-3,5-difluorophenoxy]propan-1-ol]
- T/C on day 0 ([4]; 30 mg/kg PO): 1.00
- T/C on day 7 ([4]; 30 mg/kg PO): 0.37*
- T/C on day 14 ([4]; 30 mg/kg PO): 0.35**
- T/C on day 21 ([4]; 30 mg/kg PO): 0.35
- T/C on day 28 ([4]; 30 mg/kg PO): 0.28
- T/C on day 35 ([4]; 30 mg/kg PO): 0.35
- T/C on day 0 ([4]; 50 mg/kg PO): 1.00
- T/C on day 7 ([4]; 50 mg/kg PO): 0.27**
- T/C on day 14 ([4]; 50 mg/kg PO): 0.46**
- T/C on day 21 ([4]; 50 mg/kg PO): 0.33**
- T/C on day 28 ([4]; 50 mg/kg PO): 0.29**
- T/C on day 35 ([4]; 50 mg/kg PO): 0.31*
- tumor growth inhibition (activity call) ([4]; orally on days 1, 7 and 14 at 50 and 30 mg/kg): active

Structure (SMILES): CNCCCOc1cc(F)c(-c2c(Cl)nc3ncnn3c2C2CCCCCC2)c(F)c1.O=C(O)C(F)(F)F [Example 32, 3-[4-(5-Chloro-7-cycloheptyl[1,2,4]triazolo[1,5-a]pyrimidin-6-yl)-3,5-difluorophenoxy]-N-methylpropan-1-amine trifluoroacetic acid salt]
- T/C on day 0 ([4]; 30 mg/kg PO): 1.00
- T/C on day 7 ([4]; 30 mg/kg PO): 0.55
- T/C on day 14 ([4]; 30 mg/kg PO): 0.68
- T/C on day 21 ([4]; 30 mg/kg PO): 0.35
- T/C on day 28 ([4]; 30 mg/kg PO): 0.43
- T/C on day 35 ([4]; 30 mg/kg PO): 0.53
- T/C on day 0 ([4]; 50 mg/kg PO): 1.00
- T/C on day 7 ([4]; 50 mg/kg PO): 0.41
- T/C on day 14 ([4]; 50 mg/kg PO): 0.44*
- T/C on day 21 ([4]; 50 mg/kg PO): 0.27*
- T/C on day 28 ([4]; 50 mg/kg PO): 0.31
- T/C on day 35 ([4]; 50 mg/kg PO): 0.26
- tumor growth inhibition (activity call) ([4]; orally on days 1, 7 and 14 at 50 mg/kg): active
